Data taken from US20210228523A1, “MODULATORS OF SESTRIN-GATOR2 INTERACTION AND USES THEREOF” (Navitor Pharmaceuticals, Inc., priority 2017, published 2021).

Tests used:
[1] = tested on: layer V pyramidal neurons in PFC; assay: Dendritic spine density and morphology analysis (two-photon imaging); assay type: in vivo, rat; conditions: Example H; NV-5138 160 mg/kg oral single dose; 24 hr
Experimental: (§1) Study Design: Sixteen (16) male rats weighing between 175 and 200 g were randomized into 2 study groups (n=8), following a 5-day acclimation period. On study day 0, rats received a single dose of either NV vehicle (Veh, 0.5% methylcellulose/0.1% Tween-80) or NV-5138 (160 mg/kg), by oral gavage. On day 1, 24 hrs after dosing, rats were sacrificed, and brain slices were prepared and subjected to whole cell patch clamp recording of layer V pyramidal neurons in PFC.
Spine Density Analysis. Labeled neurons within layer V of anterior cingulate (Cg1) and prelimbic mPFC (Cg3) were imaged with a two-photon Ti:sapphire laser scanning system for analysis of spine density and morphology (810 nanometers; Mai Tai, Spectra Physics, Mountain View, Calif.) coupled to direct detection Radiance 2000 BioRad laser scanner (Zeiss Micromaging, Thornwood, N.Y.) mounted on a Olympus BX50WI microscope, using a 60× (0.9 numerical aperture) water-immersion objective. This includes the total number of spines on proximal and distal tufts of layer V neurons, as well as the spine head diameter, and indication of spine maturation. The length of apical tuft branch segments is determined within the 3D matrix of each Z-stack by using Neurolucida 10.2 (MicroBrightField). Spine density and spine head diameter analysis are done with the Autospine module of Neurolucida Explorer (version 10.2) on the raw image stacks (2-5 optical sections, 1 μm apart). Spine density and segmentation (beading) were sampled in three zones: tips of tuft branches as they approach the pial membrane, intermediate dendrites approximately midway between the pial membrane and bifurcation of apical trunk, and proximal tuft dendrites just distal to the bifurcation. Results were expressed in terms of total dendritic length, spine density, and segmentation density. Results were expressed in terms of spine density per 10 μm.

[2] = tested on: layer V pyramidal neurons in PFC; assay: Whole cell patch clamp recording of 5-HT- and Hcrt-induced EPSCs in brain slices after oral dosing; assay type: in vivo, rat; conditions: Example H, NV-5138 160 mg/kg oral single dose
Experimental: as §1
Preparation of Test Articles: NV-5138 (Navitor, Lot #07) was prepared by dissolving in Veh (0.5% methylcellulose/0.1% Tween-80) at a concentration of 50 mg/mL. The dosing volume based on the weight of the animal (3.2 mL/kg) was administered by oral gavage to study animals. Test articles were prepared the day of dosing.
Brain Slice Preparation: Brain slices were prepared according to published procedures (Liu, R. J. et al., J. Neurosci. 22(21): 9453-9464 (2002)). Briefly, rats were anesthetized with chloral hydrate (400 mg/kg, i.p.), in adherence to protocols approved by the Yale Animal Care and Use Committee. After decapitation, the brains were removed rapidly and placed in ice-cold (4° C.) artificial cerebrospinal fluid (ACSF) in which sucrose (252 mM) was substituted for NaCl (sucrose-ACSF) to prevent cell swelling. A block of tissue containing PFC was dissected and coronal slices (400 μm) were cut in sucrose-ACSF with an oscillating-blade tissue sheer (Leica VT1000S). After placement of the slice in a submerged recording chamber, the bath temperature was raised to 32° C. Known concentrations of drugs dissolved in ACSF, applied through a stopcock arrangement at a fast flow rate (4 mL/min), reached the slice within 7-10 s. […] A recovery period of ˜1-2 h was allowed before commencement of recording.
Electrophysiology Recording. […] Series resistance, monitored throughout the experiment, was usually between 4 and 8 MΩ. […]

CC(C)(C[C@H](N)C(=O)O)C(F)F [NV-5138]
mushroom spine subtype density [1]: specific increase | overall spine density in layer V pyramidal neuron dendrites [1]: significant increase | thin spine subtype density [1]: specific increase | amplitude of 5-HT- and Hcrt-induced EPSCs (cumulative probability distribution) ([2]; FIG. 31, 24 hrs): on frequency but not amplitude | frequency of 5-HT-induced EPSCs relative to vehicle-treated rats ([2]; 24 hrs after dosing): significantly increased | frequency of Hcrt-induced EPSCs relative to vehicle-treated rats ([2]; 24 hrs after dosing): significantly increased
